These results are taken from article PMC8385062, “Deciphering ion transport and ATPase coupling in the intersubunit tunnel of KdpFABC” (Nature Communications, 2021).

For the assay, the target named is T1, KdpFABC (nucleotide / vanadate rows, site in KdpB) (Escherichia coli, UniProt P03960, D307N).
T1 construct: heterotetrameric complex, His-tagged KdpC, pBXC3H vector, produced in E. coli LB2003 (lacks endogenous K+ uptake systems), purified; Potassium-transporting ATPase KdpC subunit; Potassium-transporting ATPase KdpF subunit
Kind of assay: cryo-EM structure, […] Å. The class given is binding. The following applies: 5 mM AMPPCP, 50 mM KCl; between N and P domains of KdpB, E1·ATP state.

T1 sequence (P03960 whole entry D307N): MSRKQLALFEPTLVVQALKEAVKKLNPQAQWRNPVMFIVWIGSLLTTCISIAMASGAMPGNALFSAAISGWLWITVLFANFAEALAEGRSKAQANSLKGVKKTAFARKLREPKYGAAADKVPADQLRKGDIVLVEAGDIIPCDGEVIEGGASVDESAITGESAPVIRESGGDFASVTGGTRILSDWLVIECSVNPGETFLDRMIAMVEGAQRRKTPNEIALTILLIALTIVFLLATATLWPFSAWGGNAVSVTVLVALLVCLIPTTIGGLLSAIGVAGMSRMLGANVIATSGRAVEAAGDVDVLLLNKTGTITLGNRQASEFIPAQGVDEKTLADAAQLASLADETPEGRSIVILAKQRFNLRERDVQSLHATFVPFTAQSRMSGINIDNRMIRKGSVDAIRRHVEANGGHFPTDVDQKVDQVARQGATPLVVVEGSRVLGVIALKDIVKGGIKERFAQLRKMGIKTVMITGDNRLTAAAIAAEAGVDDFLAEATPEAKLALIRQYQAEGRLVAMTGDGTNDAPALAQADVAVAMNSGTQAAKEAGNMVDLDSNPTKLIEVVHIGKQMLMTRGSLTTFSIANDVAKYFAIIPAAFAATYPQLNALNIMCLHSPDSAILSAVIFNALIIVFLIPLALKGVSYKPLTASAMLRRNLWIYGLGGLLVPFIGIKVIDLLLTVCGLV
T1 sequence (P03959 whole entry partner): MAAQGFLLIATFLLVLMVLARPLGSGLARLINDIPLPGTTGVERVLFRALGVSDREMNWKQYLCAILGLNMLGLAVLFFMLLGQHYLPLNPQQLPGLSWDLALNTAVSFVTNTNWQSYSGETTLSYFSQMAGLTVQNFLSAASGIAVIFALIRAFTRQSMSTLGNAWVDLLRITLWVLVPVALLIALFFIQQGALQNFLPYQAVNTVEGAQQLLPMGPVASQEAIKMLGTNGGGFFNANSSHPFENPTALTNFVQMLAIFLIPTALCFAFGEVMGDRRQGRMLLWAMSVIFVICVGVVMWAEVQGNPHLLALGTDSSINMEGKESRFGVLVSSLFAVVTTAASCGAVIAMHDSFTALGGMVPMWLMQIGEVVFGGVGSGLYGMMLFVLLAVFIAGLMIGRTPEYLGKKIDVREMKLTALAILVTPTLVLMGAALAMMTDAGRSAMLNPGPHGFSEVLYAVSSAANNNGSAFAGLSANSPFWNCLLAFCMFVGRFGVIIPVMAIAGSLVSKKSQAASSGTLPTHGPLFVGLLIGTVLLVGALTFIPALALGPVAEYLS
T1 sequence (P03961 whole entry partner): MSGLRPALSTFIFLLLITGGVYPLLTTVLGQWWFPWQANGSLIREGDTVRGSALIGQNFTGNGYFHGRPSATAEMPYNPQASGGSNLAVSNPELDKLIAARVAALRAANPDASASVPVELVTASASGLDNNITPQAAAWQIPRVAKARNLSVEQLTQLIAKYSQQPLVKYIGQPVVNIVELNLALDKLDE
T1 sequence (P36937 whole entry partner): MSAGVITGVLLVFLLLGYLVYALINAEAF

`Nc1ncnc2c1ncn2[C@@H]1O[C@H](COP(=O)(O)OP(=O)(O)CP(=O)(O)O)[C@@H](O)[C@H]1O` [AMPPCP]: the “cryo-EM structure, 3.1 Å” value was “The nucleotide AMPPCP is coordinated between the N and P domains”.
